Results: US10273290B2, “Hydrocarbon double-stapled stabilized HIV-1 GP41 heptad repeat domain peptides” (DANA-FARBER CANCER INSTITUTE, INC., priority 2009, dated 2019)
Entries after “also recorded” stand apart in the source; their conditions may differ. Read-outs that look alike come from different tables or passages of the source. Bridge positions count the residues as written; N and C are the ends. Square brackets hold non-standard residues; d marks the D form. Ends that are not written are not given here. Peptide text beside a SMILES is read from it. S5 = C=CCCC[C@](C)(N)C(=O)O; Nle = CCCC[C@H](N)C(=O)O

Columns and labels:
[1] = Circular dichroism, α-helical content; type: physicochemical
Experimental: The α-helicity of stapled modified polypeptides was compared to their unmodified counterparts by circular dichroism. CD spectra were obtained on an Aviv spectropolarimeter at 20° C. using the following standard measurement parameters: wavelength, 190-260 nm; step resolution, 0.5 nm; speed, 20 nm/sec; accumulations, 10; response, 1 sec; bandwidth, 1 nm; path length, 0.1 cm. The α-helical content of each peptide was calculated by dividing the mean residue ellipticity [θ]222obs, by the reported [θ]222obs for a model helical peptide (Forood, B., E. J. Feliciano, and K. P. Nambiar, PNAS, 1993. 90(3): p. 838-842; J. Martin Scholtz, Biopolymers, 1991. 31(13): p. 1463-1470; Lawless, M. K., et al., Biochemistry, 1996. 35(42): p. 13697-13708) or using, for example, the Aviv machine using CDNN software developed by Brohm in order to deduce five different secondary structure fractions (helix, parallel and antiparallel beta-sheet, beta-turn and random coil). Protein Engineering, 1992. 5(3); p. 191-195
In order to evaluate secondary structure improvements of hydrocarbon-stapled peptides, we record and analyze circular dichroism (CD) spectra on an Aviv Biomedical spectrometer (model 410), as described above. […] The CD spectra are initially plotted as wavelength versus millidegree. […] After conversion to mean residue ellipticity, percent α-helicity can be calculated using the equation, % helicity=100×[θ]222/^max[θ]222, where ^max[θ]222=−40,000×[1−(2.5/number of amino acid residues)]. We also employ the curve-fitting CDDN software that is bundled with our spectrometer to calculate the relative fractions of secondary structure including α-helix, parallel and antiparallel β-sheet, β-turn and random coil.

pepsin = experiment: Protease resistance assay, pepsin at pH 2; settings: for Half-life (minutes), pepsin: pepsin at 0.5 ng/μL, peptide 25 μM, acidic conditions
Experimental: The DAD signal was set to 280 nm with an 8 nm bandwidth and MSD set to scan mode with one channel at (M+2H)/2, +1 mass units and the other at (M+3H)/3, +1 mass units. […] Reaction samples were composed of 5 μL peptide in DMSO (1 mM stock) and 195 μL of buffer consisting of 50 mM phosphate buffer pH 7.4 containing 2 mM CaCl2. Upon injection of the 0 hr time point sample, 2 μL of 50 ng/μL chymotrypsin (Sigma) was added and the amount of intact peptide quantitated by serial injection over time. An internal control of acetylated tryptophan carboxamide at a concentration of 100 μM was used to normalize each MSD data point. A plot of MSD area versus time yielded an exponential decay curve and half-lives were determined by nonlinear regression analysis using Prism software (GraphPad). The assay was also performed using trypsin and pepsin in their appropriate buffer conditions.

[2] = tested on: HIV-1 HXBc2 virus bearing HR1 double mutations V38A/N42T and V38E/N42S; experiment: HIV-1 infectivity assay, enfuvirtide-resistant HR1 double mutants; type: cell-based
Experimental: (§1) HIV-1 infectivity assays were performed using known methods (Madani et al., 2007 Inhibition of human immunodeficiency virus envelope glycoprotein-mediated single cell lysis by low-molecular-weight antagonists of viral entry. J Virol, 81: 532-538; and Si et al., 2001 Envelope glycoprotein determinants of neutralization resistance in a simian-human immunodeficiency virus (SHIV-HXBc2P 3.2) derived by passage in monkeys. J Virol, 75:4208-4218; both incorporated herein by reference). […] Virus-containing supernatants were harvested 24-30 hr after transfection, filtered, aliquoted, and stored at −80° C. Target cells were seeded at a density of 6×10^3 cells/well in 96-well plates 24 hours prior to infection. Cf2Th-CD4-CCR5 cells were used for infections by viruses with the ADA, YU2, and A-MLV envelope glycoproteins, and Cf2Th-CD4-CXCR4 cells used for HXBc2, HXBc2P 3.2, and A-MLV. On the day of infection, the structured peptides (0-3 μM) were added to recombinant viruses (10,000 RT units) to a final volume of 50 μL and incubated at 37° C. for 30 min. Media was then removed and the target cells incubated with virus-peptide mixture for 48 hours at 37° C. The media was again removed and the cells lysed with 30 μL of passive lysis buffer (Promega) and three freeze-thaw cycles.

4E10 antibody = experiment: Competitive 4E10 antibody binding by ELISA; set-up: species or system human; settings: competition with wild-type MPER peptide probe
Experimental: Half maximal inhibitory concentrations (IC50s) were determined by competitive enzyme-linked assay (ELISA) using a constant concentration of biotinylated peptide and 4E10-IgG with a variable concentration of gp41 peptides. Microwells were coated overnight at 4° C. with 50 μl of PBS containing neutravidin (4 μg/ml). Wells were washed twice with PBS containing 0.05% Tween 20, and blocked with 4% non-fat dry milk (NFDM) in PBS for 45 min at 37° C. Meanwhile, a mixture of a biotinylated 4E10-peptide epitope, biotin-PEG2-[…], (20 nM), IgG 4E10 (0.2 nM), and the competing peptide analogue (threefold dilution series starting at 10 μM) in 0.4% NFDM, 0.02% Tween and PBS was incubated in a separate 96-well plate at 37° C. for 2 h. After washing the blocked plate, the mixture of 4E10, biotinylated peptide and competing structured HIV-1 gp41 peptide was added to the wells. After 20 min at room temperature, the wells were washed five times, and a 1:500 dilution of Goat Anti-Human IgG F(ab′)2, Peroxidase Conjugate was added. […] After 20 min, wells containing TMB solution were stopped by adding 50 μl of H2SO4 (2 M), and the absorbance at 450 nm was read on a microplate reader (Molecular Devices). The concentration of competitor peptide corresponding to a half-maximal signal (IC50) was determined by interpolation of the resulting binding curve using GraphPad Prism. […]

chymotrypsin = target: T1, chymotrypsin (Bos taurus, UniProt P00766); experiment: Protease resistance assay, chymotrypsin (LC/MS); type: in vitro ADME; settings: pH 7.4, 0.5 chymotrypsin, peptide 25 μM
T1 construct: purchased Sigma

[3] = tested on: HIV-1 strains HXBc2, ADA, and HXBc2P 3.2; experiment: Luciferase-based HIV-1 infectivity assay, three strains; type: cell-based
Experimental: Also the direct inhibitory activity of modified polypeptides and the antibodies targeted thereto can be quantified based upon their capacity to directly block HIV infection of CD4-positive and CCR5-expressing canine thymus cells. […] The identical experiment is performed with the amphotropic murine leukemia virus (AMLV), to monitor for any nonspecific effects of the modified polypeptides or antibodies.
as §1
Recombinant HIV-1 bearing the envelope glycoproteins from three distinct HIV-1 strains, HXBc2, ADA, and HXBc2P 3.2, and a negative control virus bearing the amphotropic murine leukemia virus (A-MLV) envelope glycoproteins, were evaluated.

Chymotrypsin, pH 7 [4] = experiment: Chymotrypsin, pH 7
Description: (§2) Title: Chymotrypsin, pH 7
First reader's note: The table also serves as the legend of the plot of fraction intact over time; the line and marker symbols are left out.

Chymotrypsin, pH 7 [5] = experiment: Chymotrypsin, pH 7; remark: listed apart in the source
Description: Table printed on a drawing sheet, FIG. 17D
as §2
First reader's note: The table also serves as the legend of the plot below it (fraction intact over time); the plot symbols before the compound names are left out.

Compound: enfuvirtide [listing 1 of 2 here]
- % helicity at pH 2 ([1]; pH 2): 49%
- % helicity at pH 7 ([1]; pH 7): 19%
- calculated α-helical content ([1]; physiologic pH): ~25%
- Half-life (minutes), pepsin (pepsin): 4 min
- functional activity against HR1 double-mutant HIV-1, in words [2]: no functional activity

Compound: SEQ ID NO:135: i, i+4 singly stapled SAH-MPER peptide stapled in a similar position (ELDKWASLWNWFNITN[S5]LWY[S5]K-NH2; staple 17-21)
- competition for 4E10 antibody binding, in words (4E10 antibody): superior to the wild-type MPER peptide

Compound: SEQ ID NO:136: i, i+3 singly stapled SAH-MPER peptide (ELDKWASLWNWFNITN[S5]LW[S5]IK-NH2; staple 17-20)
- competition for 4E10 antibody binding, in words (4E10 antibody): compete more effectively for binding than an i, i+4 stapled peptide stapled in a similar position; also recorded: superior to the wild-type MPER peptide

Compound: CCCC[C@H](NC(C)=O)C(=O)N[C@H](C(=O)N[C@@H](Cc1c[nH]c2ccccc12)C(=O)N[C@@H](CCCC)C(=O)N[C@@H](CCC(=O)O)C(=O)N[C@@H](Cc1c[nH]c2ccccc12)C(=O)N[C@@]1(C)CCCC=CCCC[C@@](C)(C(=O)N[C@@H](CC(N)=O)C(=O)N[C@@H](Cc2ccc(O)cc2)C(=O)N[C@H](C(=O)N[C@@H](CO)C(=O)N[C@@H](CC(C)C)C(=O)N[C@H](C(=O)N[C@@H](Cc2c[nH]cn2)C(=O)N[C@@H](CO)C(=O)N[C@@H](CC(C)C)C(=O)N[C@H](C(=O)N[C@@H](CCC(=O)O)C(=O)N[C@@H](CCC(=O)O)C(=O)N[C@@H](CO)C(=O)N[C@@H](CCC(N)=O)C(=O)N[C@@H](CC(N)=O)C(=O)N[C@@H](CCC(N)=O)C(=O)N[C@@]2(C)CCCC=CCCC[C@@](C)(C(=O)N[C@@H](CCC(N)=O)C(=O)N[C@@H](CCC(=O)O)C(=O)N[C@@H](CC(C)C)C(=O)N[C@@H](CC(C)C)C(=O)N[C@@H](CCC(=O)O)C(N)=O)NC(=O)[C@H](CC(N)=O)NC(=O)[C@H](CCCCN)NC(=O)[C@H](CCC(=O)O)NC2=O)[C@@H](C)CC)[C@@H](C)CC)[C@@H](C)O)NC(=O)[C@H]([C@@H](C)CC)NC(=O)[C@H](CCC(=O)O)NC(=O)[C@H](CCCNC(=N)N)NC1=O)[C@@H](C)O [SAH-gp41(626-662)(B, F)] (Ac-[Nle]TW[Nle]EW[S5]REI[S5]NYTSLIHSLIEESQNQ[S5]EKN[S5]QELLE-NH2; staple 7-11, 28-32)
- Half-Life (chymotrypsin): 21.2 h
- half-life at 25 μM (pepsin; pepsin (isolated protease) in buffer, pH 2): 15.5 h
- anti-HIV-1 (anti-viral) activity, in words [3]: relatively impaired anti-viral activity

Compound: Sifuvirtide
- Half-Life (Chymotrypsin, pH 7 [4]): 2 min

Compound: enfuvirtide [listing 2 of 2 here]
- Half-life (minutes), pepsin (pepsin): 3320 min
- anti-HIV-1 (anti-viral) activity, in words [3]: relatively impaired anti-viral activity
- Half-Life (Chymotrypsin, pH 7 [5]): 16.73 h
